Target: human activated kallikrein enzyme (plasma kallikrein) (Homo sapiens (Human), UniProt P03952)
Test: Inhibition of human activated plasma kallikrein, fluorogenic peptide substrate assay, 500 pM enzyme format
Type: biochemical
Conditions: 500 pM activated kallikrein enzyme, 300 uM Pro-Phe-Arg-7-amido-4-methylcoumarin substrate, 30 min preincubation, 10 min at RT; read-out: Primary Dose Response Assay: Average EC50
Procedure, shortened: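 Buffer 20 mM Tris pH 7.5, EDTA, NaCl, PEG-400, Triton X-100; 300 uM Pro-Phe-Arg-AMC; enzyme–inhibitor preincubation 30 min RT. Format one: 500 pM kallikrein, 10 min RT reaction; format two: 5 pM kallikrein, 18 h RT reaction. Fluorescence read at 460 nm (380 nm excitation).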

Chain of human activated kallikrein enzyme (plasma kallikrein) (P03952 391-638): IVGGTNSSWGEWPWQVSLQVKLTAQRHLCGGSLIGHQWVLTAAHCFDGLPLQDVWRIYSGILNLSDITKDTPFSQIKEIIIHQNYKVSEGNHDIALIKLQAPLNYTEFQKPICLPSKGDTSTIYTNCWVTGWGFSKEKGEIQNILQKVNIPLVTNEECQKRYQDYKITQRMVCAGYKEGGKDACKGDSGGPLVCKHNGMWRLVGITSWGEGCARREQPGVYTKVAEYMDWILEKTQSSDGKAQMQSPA
Chain of human activated kallikrein enzyme (plasma kallikrein) (P03952 20-390 partner): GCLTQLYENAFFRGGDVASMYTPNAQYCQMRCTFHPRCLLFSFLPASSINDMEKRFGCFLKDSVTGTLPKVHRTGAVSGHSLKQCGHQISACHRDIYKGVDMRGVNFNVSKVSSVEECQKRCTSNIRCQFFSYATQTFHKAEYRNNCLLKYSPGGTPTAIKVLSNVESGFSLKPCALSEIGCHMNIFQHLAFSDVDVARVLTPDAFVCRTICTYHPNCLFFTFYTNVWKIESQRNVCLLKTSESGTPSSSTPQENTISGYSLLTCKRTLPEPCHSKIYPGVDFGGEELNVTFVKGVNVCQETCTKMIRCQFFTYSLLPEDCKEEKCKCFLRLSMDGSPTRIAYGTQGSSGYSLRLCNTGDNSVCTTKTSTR

Compound	EC50 [nM]
COc1c(C2CC2)ccc2nc(Cn3cc(C(=O)NCc4ncn5ccc(Cl)cc45)cn3)cn12 [Example I-142, N-((7-chloroimidazo[1,5-a]pyridin-1-yl)methyl)-1-((6-cyclopropyl-5-methoxyimidazo[1,2-a]pyridin-2-yl)methyl)-1H-pyrazole-4-carboxamide]	1 to 10
O=C(NCc1ncn2ccc(Cl)cc12)c1cnn(Cc2cn3cc(Br)c(Cl)cc3n2)c1 [Example I-36, 1-((6-bromo-7-chloroimidazo[1,2-a]pyridin-2-yl)methyl)-N-((7-chloroimidazo[1,5-a]pyridin-1-yl)methyl)-1H-pyrazole-4-carboxamide]	10 to 100
N#CNC(=NCc1ncn2ccc(Cl)cc12)c1cnn(Cc2cn3cc(C4CC4)ccc3n2)c1 [Example I-123, N′-((7-chloroimidazo[1,5-a]pyridin-1-yl)methyl)-N-cyano-1-((6-cyclopropylimidazo[1,2-a]pyridin-2-yl)methyl)-1H-pyrazole-4-carboximidamide]	1 to 10
O=C(NCc1ncn2ccc(Cl)cc12)c1nnc(Cc2cn3cc(C4CC4)ccc3n2)o1 [Example I-51, N-((7-chloroimidazo[1,5-a]pyridin-1-yl)methyl)-5-((6-cyclopropylimidazo[1,2-a]pyridin-2-yl)methyl)-1,3,4-oxadiazole-2-carboxamide]	< 1
O=C(NCc1ncn2cc(F)c(Br)cc12)c1cnn(Cc2cn3cc(C4CC4)ccc3n2)c1 [Example I-151, N-((7-bromo-6-fluoroimidazo[1,5-a]pyridin-1-yl)methyl)-1-((6-cyclopropylimidazo[1,2-a]pyridin-2-yl)methyl)-1H-pyrazole-4-carboxamide]	10 to 100
Cc1c(C)n(C)c2ccc(Cn3cc(C(=O)NCc4ncn5ccc(Cl)c(F)c45)nn3)cc12 [Example I-269, N-((7-chloro-8-fluoroimidazo[1,5-a]pyridin-1-yl)methyl)-1-((1,2,3-trimethyl-1H-indol-5-yl)methyl)-1H-1,2,3-triazole-4-carboxamide]	1 to 10
O=C(NCc1ncn2ccc(Cl)cc12)c1cn(Cc2cn3cc(C4CC4)ccc3n2)nn1 [Example I-80, N-((7-chloroimidazo[1,5-a]pyridin-1-yl)methyl)-1-((6-cyclopropylimidazo[1,2-a]pyridin-2-yl)methyl)-1H-1,2,3-triazole-4-carboxamide]	< 1
Cc1ccc2nc(Cn3cc(C(=O)NCc4ncn5c(N)cc(Cl)cc45)cn3)cn2c1 [Example I-58, N-((5-amino-7-chloroimidazo[1,5-a]pyridin-1-yl)methyl)-1-((6-methylimidazo[1,2-a]pyridin-2-yl)methyl)-1H-pyrazole-4-carboxamide]	1 to 10
COC(=O)CCc1c(C(=O)NCc2ncn3ccc(Cl)cc23)cnn1Cc1cn2cc(C3CC3)ccc2n1 [Example I-82, methyl 3-(4-(((7-chloroimidazo[1,5-a]pyridin-1-yl)methyl)carbamoyl)-1-((6-cyclopropylimidazo[1,2-a]pyridin-2-yl)methyl)-1H-pyrazol-5-yl)propanoate]	10 to 100
O=C(NCc1ncn2ccc(Cl)cc12)c1cn(Cc2cn3c(F)c(C4CC4)ccc3n2)nn1 [Example I-144, N-((7-chloroimidazo[1,5-a]pyridin-1-yl)methyl)-1-((6-cyclopropyl-5-fluoroimidazo[1,2-a]pyridin-2-yl)methyl)-1H-1,2,3-triazole-4-carboxamide]	< 1
COC(=O)C(F)Cc1cc(C2CC2)cn2cc(Cn3cc(C(=O)NCc4ncn5ccc(Cl)c(F)c45)nn3)nc12 (stereo not shown) [Example I-224a, methyl 3-(2-((4-(((7-chloro-8-fluoroimidazo[1,5-a]pyridin-1-yl)methyl)carbamoyl)-1H-1,2,3-triazol-1-yl)methyl)-6-cyclopropylimidazo[1,2-a]pyridin-8-yl)-2-fluoropropanoate]	< 1
CCOc1c(Cl)ccn2cnc(CNC(=O)c3cn(Cc4cn5cc(C6CC6)cc(CC6(C(=O)O)CCCC6)c5n4)nn3)c12 [Example I-221c, 1-((2-((4-(((7-chloro-8-ethoxyimidazo[1,5-a]pyridin-1-yl)methyl)carbamoyl)-1H-1,2,3-triazol-1-yl)methyl)-6-cyclopropylimidazo[1,2-a]pyridin-8-yl)methyl)cyclopentane-1-carboxylic acid]	10 to 100
O=C(O)CCn1c(Cn2cc(C(=O)NCc3ncn4ccc(Cl)c(F)c34)nn2)cc2cc(C3CC3)ccc21 [Example I-251b, 3-(2-((4-(((7-chloro-8-fluoroimidazo[1,5-a]pyridin-1-yl)methyl)carbamoyl)-1H-1,2,3-triazol-1-yl)methyl)-5-cyclopropyl-1H-indol-1-yl)propanoic acid]	< 1
O=C(NCc1ncn2ccc(Cl)cc12)c1cnn(Cc2cn3nc(C4CC4)ccc3n2)c1 [Example I-15, N-((7-chloroimidazo[1,5-a]pyridin-1-yl)methyl)-1-((6-cyclopropylimidazo[1,2-b]pyridazin-2-yl)methyl)-1H-pyrazole-4-carboxamide]	< 1
CCOC(=O)C(C)(C)Cc1cc(C2CC2)cn2cc(Cn3cc(C(=O)NCc4ncn5ccc(Cl)cc45)nn3)nc12 [Example I-168, ethyl 3-(2-((4-(((7-chloroimidazo[1,5-a]pyridin-1-yl)methyl)carbamoyl)-1H-1,2,3-triazol-1-yl)methyl)-6-cyclopropylimidazo[1,2-a]pyridin-8-yl)-2,2-dimethylpropanoate]	< 1
O=C(NCc1ncn2ccc(I)cc12)c1cnn(Cc2cn3cc(C4CC4)ccc3n2)c1 [Example I-45, 1-((6-cyclopropylimidazo[1,2-a]pyridin-2-yl)methyl)-N-((7-iodoimidazo[1,5-a]pyridin-1-yl)methyl)-1H-pyrazole-4-carboxamide]	1 to 10
O=C(NCc1ncn2ccc(Cl)cc12)c1cn(Cc2cn3cc(C4CC4)ccc3n2)nc1Cc1nn[nH]n1 [Example I-126, 3-((2H-tetrazol-5-yl)methyl)-N-((7-chloroimidazo[1,5-a]pyridin-1-yl)methyl)-1-((6-cyclopropylimidazo[1,2-a]pyridin-2-yl)methyl)-1H-pyrazole-4-carboxamide]	< 1
O=C(NCc1ncn2ccc(Cl)c(F)c12)c1cn(Cc2nc3cc(C4CC4)ccc3[nH]2)nn1 [Example I-236, N-((7-chloro-8-fluoroimidazo[1,5-a]pyridin-1-yl)methyl)-1-((5-cyclopropyl-1H-benzo[d]imidazol-2-yl)methyl)-1H-1,2,3-triazole-4-carboxamide]	10 to 100
O=C(NCc1ncn2ccc(Cl)cc12)c1cn(Cc2cn3nc(C4CC4)ccc3n2)nn1 [Example I-111, N-((7-chloroimidazo[1,5-a]pyridin-1-yl)methyl)-1-((6-cyclopropylimidazo[1,2-b]pyridazin-2-yl)methyl)-1H-1,2,3-triazole-4-carboxamide]	< 1
O=C(NCc1ncn2ccc(Cl)c(F)c12)c1cn(Cc2cn3cc(C4CC4)cnc3n2)nn1 [Example I-165, N-((7-chloro-8-fluoroimidazo[1,5-a]pyridin-1-yl)methyl)-1-((6-cyclopropylimidazo[1,2-a]pyrimidin-2-yl)methyl)-1H-1,2,3-triazole-4-carboxamide]	< 1
Cn1c(Cn2cc(C(=O)NCc3ncn4ccc(Cl)c(F)c34)nn2)cc2cc(C3CC3)ccc21 [Example I-233, N-((7-chloro-8-fluoroimidazo[1,5-a]pyridin-1-yl)methyl)-1-((5-cyclopropyl-1-methyl-1H-indol-2-yl)methyl)-1H-1,2,3-triazole-4-carboxamide]	1 to 10
O=C(NCc1ncn2ccc(Cl)c(F)c12)c1cn(Cc2cc3ccc(Cl)cc3[nH]2)nn1 [Example I-222, 1-((6-chloro-1H-indol-2-yl)methyl)-N-((7-chloro-8-fluoroimidazo[1,5-a]pyridin-1-yl)methyl)-1H-1,2,3-triazole-4-carboxamide]	100 to 2000
O=C(NCc1ncn2ccc(Cl)cc12)c1cnn(Cc2cn3cc(C4CC4)cc(CCO)c3n2)c1 [Example I-87, N-((7-chloroimidazo[1,5-a]pyridin-1-yl)methyl)-1-((6-cyclopropyl-8-(hydroxyethyl)imidazo[1,2-a]pyridin-2-yl)methyl)-1H-pyrazole-4-carboxamide]	< 1
CCOC(=O)C1(c2cccn3cc(Cn4cc(C(=O)NCc5ncn6ccc(Cl)cc56)cn4)nc23)CC1 [Example I-115, ethyl 1-(2-((4-(((7-chloroimidazo[1,5-a]pyridin-1-yl)methyl)carbamoyl)-1H-pyrazol-1-yl)methyl)imidazo[1,2-a]pyridin-8-yl)cyclopropane-1-carboxylate]	< 1
C#Cc1cc(C2CC2)cn2cc(Cn3cc(C(=O)NCc4ncn5ccc(Cl)c(F)c45)nn3)nc12 [Example I-228, N-((7-chloro-8-fluoroimidazo[1,5-a]pyridin-1-yl)methyl)-1-((6-cyclopropyl-8-ethynylimidazo[1,2-a]pyridin-2-yl)methyl)-1H-1,2,3-triazole-4-carboxamide]	< 1
Cc1cccc2nc(Cn3cc(C(=O)NCc4ncn5ccc(Cl)cc45)cn3)cn12 [Example I-9, N-((7-chloroimidazo[1,5-a]pyridin-1-yl)methyl)-1-((5-methylimidazo[1,2-a]pyridin-2-yl)methyl)-1H-pyrazole-4-carboxamide]	10 to 100
O=C(O)CCc1cc(C2CC2)cn2cc(Cn3cc(C(=O)NCc4ncn5ccc(Cl)cc45)cn3)nc12 [Example I-100c, 3-(2-((4-(((7-chloroimidazo[1,5-a]pyridin-1-yl)methyl)carbamoyl)-1H-pyrazol-1-yl)methyl)-6-cyclopropylimidazo[1,2-a]pyridin-8-yl)propanoic acid]	< 1
O=C(NCc1ncn2ccc(Cl)c(F)c12)c1cnn(Cc2cn3nc(C4CC4)ccc3n2)c1 [Example I-146, N-((7-chloro-8-fluoroimidazo[1,5-a]pyridin-1-yl)methyl)-1-((6-cyclopropylimidazo[1,2-b]pyridazin-2-yl)methyl)-1H-pyrazole-4-carboxamide]	< 1
